Laboratory results: US20140045823A1 (Neurocrine Biosciences, Inc., priority 2012, published 2014)
pEC50: −log10 of the molar value.

The compounds below were run against T1, human GPR119 (Homo sapiens, UniProt Q8TDV5) (assay: AlphaScreen cAMP assay in MIN6 cells stably transfected with human GPR119). Conditions: Min-6/hGPR119 cells, 45 min at room temperature.
T1 construct: expression vector for human GPR119 cDNA (Acc. No. NP_848566); expressed in transfected cells; Min-6/hGPR119
T1 sequence (Q8TDV5 1-335): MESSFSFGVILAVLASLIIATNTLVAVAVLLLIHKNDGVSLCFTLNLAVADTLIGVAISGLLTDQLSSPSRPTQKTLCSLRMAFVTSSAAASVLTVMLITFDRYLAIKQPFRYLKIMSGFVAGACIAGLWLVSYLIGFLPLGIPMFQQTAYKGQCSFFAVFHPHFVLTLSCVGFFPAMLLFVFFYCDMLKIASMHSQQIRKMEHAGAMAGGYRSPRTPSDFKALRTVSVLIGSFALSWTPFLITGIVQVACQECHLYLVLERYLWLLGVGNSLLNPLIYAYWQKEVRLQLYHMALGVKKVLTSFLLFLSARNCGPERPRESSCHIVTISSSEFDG
Format: cell-based
Outline: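 MIN6 cells stably expressing human GPR119, seeded 10000/well and grown 24 h, were exposed to compound in pH 7.4 buffer with 0.5 mM IBMX, 0.1% BSA and 1% DMSO for 45 min at room temperature. Intracellular cAMP then measured by AlphaScreen.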

Structure (SMILES) | pEC50
CN(CC#N)C(=O)c1ccc(-c2ncc(C(=O)N(C3CC3)C3CCN(C(=O)OC(C)(C)C)CC3)cn2)cc1 [Example 221, 4-({2-[4-(Cyanomethyl-methyl-carbamoyl)-phenyl]-pyrimidine-5-carbonyl}-cyclopropyl-amino)-piperidine-1-carboxylic acid tert-buyl ester] | 6.96
CN(C(=O)c1ccc(-c2ncc(C(=O)N(C3CC3)C3CCN(C(=O)OC(C)(C)C)CC3)cn2)cc1)C1CCCOC1 (stereo not shown) [Example 222, 4-[Cyclopropyl-(2-{4-[methyl-(tetrahydro-pyran-3-yl)-carbamoyl]-phenyl}-pyrimidine-5-carbonyl)-amino]-piperidine-1-carboxylic acid tert-butyl ester] | 6.26
CN(CC(C)(C)O)C(=O)c1ccc(-c2ncc(C(=O)N(C3CC3)C3CCN(C(=O)OC(C)(C)C)CC3)cn2)cc1 [Example 223, 4-[Cyclopropyl-(2-{4-[(2-hydroxy-2-methyl-propyl)-methyl-carbamoyl]-phenyl}-pyrimidine-5-carbonyl)-amino]-piperidine-1-carboxylic acid tert-butyl ester] | 6.20
CC(C)(C)OC(=O)N1CCC(N(C(=O)c2cnc(-c3ccc(C(=O)NCc4ccccn4)cc3)nc2)C2CC2)CC1 [Example 224, 4-[Cyclopropyl-(2-{4-[(pyridin-2-ylmethyl)-carbamoyl]-phenyl}-pyrimidine-5-carbonyl)-amino]-piperidine-1-carboxylic acid tert-butyl ester] | 6.80
CC(C)(C)OC(=O)N1CCC(N(C(=O)c2cnc(-c3ccc(C(=O)NCC4CCCCO4)cc3)nc2)C2CC2)CC1 (stereo not shown) [Example 225, 4-[Cyclopropyl-(2-{4-[(tetrahydro-pyran-2-ylmethyl)-carbamoyl]-phenyl}-pyrimidine-5-carbonyl)-amino]-piperidine-1-carboxylic acid tert-butyl ester] | 6.73
COC1CN(C(=O)c2ccc(-c3ncc(C(=O)N(C4CC4)C4CCN(C(=O)OC(C)(C)C)CC4)cn3)cc2)C1 [Example 226, 4-(Cyclopropyl-{2-[4-(3-methoxy-azetidine-1-carbonyl)-phenyl]-pyrimidine-5-carbonyl}-amino)-piperidine-1-carboxylic acid tert-butyl ester] | 6.75
CC(C)(C)OC(=O)N1CCC(N(C(=O)c2cnc(-c3ccc(C(=O)NCCOC(F)(F)F)cc3)nc2)C2CC2)CC1 [Example 227, 4-(Cyclopropyl-{2-[4-(2-trifluoromethoxy-ethylcarbamoyl)-phenyl]-pyrimidine-5-carbonyl]-amino)-piperidine-1-carboxylic acid tert-butyl ester] | 6.79
CC(C)(C)OC(=O)N1CCC(N(C(=O)c2cnc(-c3ccc(C(=O)NCc4cocn4)cc3)nc2)C2CC2)CC1 [Example 228, 4-[Cyclopropyl-(2-{4-[(oxazol-4-ylmethyl)-carbamoyl]-phenyl}-pyrimidine-5-carbonyl)-amino]-piperidine-1-carboxylic acid tert-butyl ester] | 6.42
CC(C)(C)OC(=O)N1CCC(N(C(=O)c2cnc(-c3ccc(C(=O)NCc4cccnc4)cc3)nc2)C2CC2)CC1 [Example 229, 4-[Cyclopropyl-(2-{4-[(pyridin-3-ylmethyl)-carbamoyl]-phenyl}-pyrimidine-5-carbonyl)-amino]-piperidine-1-carboxylic acid tert-butyl ester] | 6.75
CC(C)(C)OC(=O)N1CCC(N(C(=O)c2cnc(-c3ccc(C(=O)N4CCOCC4)cc3)nc2)C2CC2)CC1 [Example 230, 4-(Cyclopropyl-{2-[4-(morpholine-4-carbonyl)-phenyl]-pyrimidine-5-carbonyl}-amino)-piperidine-1-carboxylic acid tert-butyl ester] | 6.53
CC(C)(C)OC(=O)N1CCC(N(C(=O)c2cnc(-c3ccc(C(=O)Nc4ccnnc4)cc3)nc2)C2CC2)CC1 [Example 231, 4-(Cyclopropyl-{2-[4-(pyridazin-4-ylcarbamoyl)-phenyl]-pyrimidine-5-carbonyl}-amino)-piperidine-1-carboxylic acid tert-butyl ester] | 6.38
CC(C)(C)OC(=O)N1CCC(N(C(=O)c2cnc(-c3ccc(C(=O)NCc4cccnn4)c(F)c3)nc2)C2CC2)CC1 [Example 232, 4-[Cyclopropyl-(2-{3-fluoro-4-[(pyridazin-3-ylmethyl)-carbamoyl]-phenyl}-pyrimidine-5-carbonyl)-amino]-piperidine-1-carboxylic acid tert-butyl ester] | 6.37
CN(CCC#N)C(=O)c1ccc(-c2ncc(C(=O)N(C3CC3)C3CCN(C(=O)OC(C)(C)C)CC3)cn2)cc1F [Example 234, 4-[(2-{4-[(2-Cyano-ethyl)-methyl-carbamoyl]-3-fluoro-phenyl}-pyrimidine-5-carbonyl)-cyclopropyl-amino]-piperidine-1-carboxylic acid tert-butyl ester] | 6.53
COC[C@H]1CCCN1C(=O)Cc1ccc(-c2ncc(C(=O)N(C3CC3)C3CCN(C(=O)OC(C)(C)C)CC3)cn2)cc1 [Example 235, 4-[Cyclopropyl-(2-{4-[2-(2-methoxymethyl-pyrrolidin-1-yl)-2-oxo-ethyl]-phenyl}-pyrimidine-5-carbonyl)-amino]-piperidine-1-carboxylic acid tert-butyl ester] | 6.51
CN(Cc1cccnc1)C(=O)Cc1ccc(-c2ncc(C(=O)N(C3CC3)C3CCN(C(=O)OC(C)(C)C)CC3)cn2)cc1 [Example 236, 4-[Cyclopropyl-(2-{4-[(methyl-pyridin-3-ylmethyl-carbamoyl)-methyl]-phenyl}-pyrimdine-5-carbonyl)-amino]-piperidine-1-carboxylic acid tert-butyl ester] | 6.50
CC(C)(C)OC(=O)N1CCC(N(C(=O)c2cnc(-c3ccc(C(=O)NCC4CCOC4)cc3)nc2)C2CC2)CC1 (stereo not shown) [Example 237, 4-[Cyclopropyl-(2-{4-[(tetrahydro-furan-3-ylmethyl)-carbamoyl]-phenyl}-pyrimidine-5-carbonyl)-amino]-piperidine-1-carboxylic acid tert-butyl ester] | 6.39
COc1ccc(NC(=O)c2ccc(-c3ncc(C(=O)N(C4CC4)C4CCN(C(=O)OC(C)(C)C)CC4)cn3)cc2)c(OC)c1 [Example 238, 4-(Cyclopropyl-{2-[4-(2,4-dimethoxy-phenylcarbamoyl)-phenyl]-pyrimidine-5-carbonyl}-amino)-piperidine-1-carboxylic acid tert-butyl ester] | 6.95
CC(C)(C)OC(=O)N1CCC(N(C(=O)c2cnc(-c3ccc(C(=O)N4CCC(C#N)C4)cc3)nc2)C2CC2)CC1 (stereo not shown) [Example 239, 4-({2-[4-(3-Cyano-pyrrolidine-1-carbonyl)-phenyl]-pyrimidine-5-carbonyl}-cyclopropyl-amino)-piperidine-1-carboxylic acid tert-butyl ester] | 6.37
COCc1cccc(NC(=O)c2ccc(-c3ncc(C(=O)N(C4CC4)C4CCN(C(=O)OC(C)(C)C)CC4)cn3)cc2)c1 [Example 240, 4-(Cyclopropyl-{2-[4-(3-methoxymethyl-phenylcarbamoyl)-phenyl]-pyrimidine-5-carbonyl}-amino)-piperidine-1-carboxylic acid tert-butyl ester] | 6.77
